Assay results: patent USRE32455E, “A-21978 antibiotics and process for their production” (priority 1985, dated 1987)
≈ marks a conversion by molar mass, not a printed value. Where “and” joins values, the source holds several entries; their conditions need not be identical. Identical values can stand only once.

What was measured:
[1] = system: Staphylococcus aureus 3055; assay: MIC, standard broth-dilution test; format: cell-based; settings: Table XII, sodium salt
[2] = system: pathogenic organisms, particularly gram-positive bacteria; assay: Inhibition of growth of pathogenic organisms; format: cell-based
Eubacterium aerofaciens = assay: MIC anaerobic bacteria, standard agar-dilution test; format: cell-based
Staphylococcus aureus [3] = assay: MIC, agar dilution (Table XV); format: cell-based
Description: ^1 MIC = minimum inhibitory concentration (μg/ml), agar dilution

Toxicity (LD50) in rat = format: in vivo; settings: IV
[4] = system: Fusobacterium necrophorum; assay: MIC anaerobic bacteria, standard agar-dilution test; format: cell-based
Actinomyces isaelii = assay: as above; format: cell-based
[5] = system: Group D Streptococcus 282; assay: MIC, standard broth-dilution test; format: cell-based; settings: Table XII, sodium salt
Streptococcus pyogenes [6] = assay: MIC, agar dilution (Table XV); format: cell-based
Streptococcus pneumoniae [7] = assay: MIC, agar dilution (Table XV); format: cell-based
[8] = system: Neisseria gonorrhoeae 111076-4; assay: MIC, standard agar-dilution test; format: cell-based; settings: Table XI, sodium salt
Propionibacterium acnes = assay: MIC anaerobic bacteria, standard agar-dilution test; format: cell-based
[9] = system: Viridans Streptococcus 9943; assay: MIC, standard agar-dilution test; format: cell-based; settings: Table XI, sodium salt
[10] = system: Streptococcus pyogenes C203; assay: MIC, standard agar-dilution test; format: cell-based; settings: Table XI, sodium salt
[11] = system: Streptococcus faecalis (Guze); assay: Streptococcus faecalis descending rat pyelonephritis test; format: in vivo, rat (female albino, Cox-Wistar); settings: 1.0 mg/kg × 7, subcutaneous
Method: In this test, the bacterial culture used was Streptococcus faecalis (Guze). The culture was grown on Trypticase soy agar (BBL), suspended in brain heart infusion broth (BBL), divided into 0.2-ml portions, and frozen in liquid nitrogen. Bacterial suspensions for rat inoculations were prepared daily by seeding a 50-ml flask of trypticase soy broth (BBL) from a frozen ampoule and growing the culture overnight at 37° C. on a shaker. The S. faecalis culture was diluted to 5×10^8 colony-forming units per ml. Test compounds were injected subcutaneously once daily for seven days. All compounds were suspended in 0.125% carboxymethylcellulose.
The experimental rat infections were accomplished by the following procedure. Female, random-bred albino rats (Cox-Wistar) weighing 190 to 210 g were anesthetized by intraperitoneal injection of 12 mg of sodium methohexital supplemented as necessary. The experimental pyelonephritis model was based on the studies of Guze and Beeson in which the left ureter was occluded for 20 min, followed by injection of 0.5 ml of the test organism in the femoral vein. Antimicrobial therapy was commenced 4 to 5 hrs postinfection. Four hours after the last treatment the rats were sacrificed, and the left kidney was removed and homogenized in a Duall grinder containing 9 ml of physiological saline. This represented a 10^-1 dilution of the kidney tissue. Additional 10-fold dilutions in saline were based on the anticipated bacterial cells present in the tissue homogenate. Finally, duplicate agar pour plates were made from several of these dilutions, and the plates were incubated overnight at 37° C. The therapeutic results were expressed in two ways: (i) the percentage of rats with kidney counts of less than 10^2 per g of kidney tissue, referred to as "cures," and (ii) the percentage of rats with at least a 4-log10 reduction in bacterial titer compared with infected control kidneys. Control rats were treated with 0.125% carboxymethylcellulose only. Viable cell counts in kidney tissue from control rats with S. faecalis ranged from 1.2×10^8 to 4.6×10^8 per g of homogenized tissue.

Micrococcus luteus = assay: Bioassay, paper-disc agar-diffusion; settings: Na salts; Table VIII
[12] = system: Peptococcus asaccharolyticus; assay: MIC anaerobic bacteria, standard agar-dilution test; format: cell-based
[13] = system: Peptostreptococcus anaerobius; assay: as above; format: cell-based
Clostridium septicum = assay: as above; format: cell-based
[14] = system: Streptococcus pyogenes C203; assay: MIC, standard broth-dilution test; format: cell-based; settings: Table XII, sodium salt
[15] = system: Streptococcus pneumoniae Park I; assay: MIC, standard agar-dilution test; format: cell-based; settings: Table XI, sodium salt
Toxicity (LD50) in mouse = format: in vivo
Bacteroides fragilis = assay: MIC anaerobic bacteria, standard agar-dilution test; format: cell-based
Clostridium perfringens = format: cell-based; settings: anaerobic, agar-dilution
[16] = system: Staphylococcus aureus 3055; assay: MIC, standard agar-dilution test; format: cell-based; settings: Table XI, sodium salt
Streptococcus pneumoniae [17] = assay: Experimental bacterial infection in mice, ED50; format: in vivo; settings: two doses, subcutaneous administration
Method: (§1) When two doses of test compound were administered to mice in illustrative infections, the activity observed was measured as an ED50 value [effective dose in mg/kg to protect fifty percent of the test animals: See Warren Wick, et al., J. Bacteriol. 81, 233-235 (1961)].

Staphylococcus aureus [18] = assay: Experimental bacterial infection in mice, ED50; format: in vivo; settings: two doses, subcutaneous administration
Method: as §1

Streptococcus pyogenes [19] = assay: Experimental bacterial infection in mice, ED50; format: in vivo; settings: two doses
Method: as §1

[20] = system: Viridans Streptococcus 9943; assay: MIC, standard broth-dilution test; format: cell-based; settings: Table XII, sodium salt
[21] = system: Group D Streptococcus 282; assay: MIC, standard agar-dilution test; format: cell-based; settings: Table XI, sodium salt
Fusobacterium symbiosum = assay: MIC anaerobic bacteria, standard agar-dilution test; format: cell-based
[22] = system: Streptococcus pneumoniae Park I; assay: MIC, standard broth-dilution test; format: cell-based; settings: Table XII, sodium salt
[23] = system: Streptococcus faecalis (Guze); assay: In vitro susceptibility (MIC) of the S. faecalis Guze strain; format: cell-based; settings: Table XVI
[24] = Electrometric titration in 66% aqueous dimethylformamide; format: physicochemical; settings: 66% DMF; Na salt; factors: two determinations
[25] = system: Peptostreptococcus intermedius; assay: MIC anaerobic bacteria, standard agar-dilution test; format: cell-based
Peptococcus prevoti = assay: as above; format: cell-based

Compound | MIC [1] [µg/mL] | growth inhibition [2] | MIC (Eubacterium aerofaciens) [µg/mL] | MIC (Staphylococcus aureus [3]) [µg/mL] | LD50 (Toxicity (LD50) in rat) [mg/kg] | MIC [4] [µg/mL] | MIC (Actinomyces isaelii) [µg/mL] | MIC [5] [µg/mL] | MIC (Streptococcus pyogenes [6]) [µg/mL] | MIC (Streptococcus pneumoniae [7]) [µg/mL] | MIC [8] [µg/mL] | MIC (Propionibacterium acnes) [µg/mL] | MIC [9] [µg/mL] | MIC [10] [µg/mL] | Percent of Rats Cured [11] [%] | Percent of Rats with a 4-Log Titer Decrease [11] [%] | Bioassay (Micrococcus luteus) (Micrococcus luteus) [units/mg] | MIC [12] [µg/mL] | MIC [13] [µg/mL] | MIC (Clostridium septicum) [µg/mL] | other results
CC(C)CCCCCCCCC(=O)N[C@@H](Cc1c[nH]c2ccccc12)C(=O)N[C@@H](CC(N)=O)C(=O)N[C@@H](CC(=O)O)C(=O)N[C@@H]1C(=O)NCC(=O)N[C@@H](CCCN)C(=O)N[C@@H](CC(=O)O)C(=O)N[C@H](C)C(=O)N[C@@H](CC(=O)O)C(=O)NCC(=O)N[C@H](CO)C(=O)N[C@@H]([C@H](C)CC(=O)O)C(=O)N[C@@H](CC(=O)c2ccccc2N)C(=O)O[C@@H]1C [Factor C2] | 0.5 | inhibit the growth of certain pathogenic organisms, particularly gram-positive bacteria | 8 (≈ 4.85 µM) | 0.13 (≈ 0.0788 µM) | 204 ± 17 | 64 (≈ 38.8 µM) | 1.0 (≈ 0.607 µM) | 1.0 | 0.13 (≈ 0.0788 µM) | 0.13 (≈ 0.0788 µM) | 4.0 | 2 (≈ 1.21 µM) | 1.0 | 0.13 | 89 | 100 | 1390 | 2 (≈ 1.21 µM) | 1.0 (≈ 0.607 µM) | 1.0 (≈ 0.607 µM) | MIC [14]: 0.25 µg/mL; MIC [15]: 0.25 µg/mL; LD50 (Toxicity (LD50) in mouse; IV): 150 to 250 mg/kg; LD50 (Toxicity (LD50) in mouse; SC): 175 mg/kg; MIC (Bacteroides fragilis): > 128 µg/mL; MIC (Clostridium perfringens): 8 µg/mL (≈ 4.85 µM); MIC [16]: 0.13 µg/mL; ED50 (Streptococcus pneumoniae [17]): 0.14 mg/kg; ED50 (Staphylococcus aureus [18]): 0.16 mg/kg; ED50 (Streptococcus pyogenes [19]): 0.032 mg/kg; ED50 (Streptococcus pyogenes [19]; oral administration): 59 mg/kg; MIC [20]: 16.0 µg/mL; MIC [21]: 0.25 µg/mL; MIC (Fusobacterium symbiosum): > 128 µg/mL; MIC [22]: 1.0 µg/mL; MIC [23]: 0.25 µg/mL (≈ 0.152 µM); pKa (first group) [24]: 5.8 and 5.93; pKa (second group) [24]: 7.6 and 7.63; MIC [25]: 1.0 µg/mL (≈ 0.607 µM); MIC (Peptococcus prevoti): 1.0 µg/mL (≈ 0.607 µM)
CCC(C)CCCCCCCCC(=O)N[C@@H](Cc1c[nH]c2ccccc12)C(=O)N[C@@H](CC(N)=O)C(=O)N[C@@H](CC(=O)O)C(=O)N[C@@H]1C(=O)NCC(=O)N[C@@H](CCCN)C(=O)N[C@@H](CC(=O)O)C(=O)N[C@H](C)C(=O)N[C@@H](CC(=O)O)C(=O)NCC(=O)N[C@H](CO)C(=O)N[C@@H]([C@H](C)CC(=O)O)C(=O)N[C@@H](CC(=O)c2ccccc2N)C(=O)O[C@@H]1C (some centres unmarked) [Factor C3] | 0.13 | inhibit the growth of certain pathogenic organisms, particularly gram-positive bacteria | 4 (≈ 2.41 µM) | 0.06 (≈ 0.0361 µM) | < 160 | 32 (≈ 19.2 µM) | 1.0 (≈ 0.601 µM) | 0.13 | 0.06 (≈ 0.0361 µM) | 0.03 (≈ 0.018 µM) | 4.0 | 1.0 (≈ 0.601 µM) | 0.5 | 0.25 | 78 | 78 | 803 | 1.0 (≈ 0.601 µM) | 1.0 (≈ 0.601 µM) | 1.0 (≈ 0.601 µM) | MIC [14]: 0.13 µg/mL; MIC [15]: 0.13 µg/mL; LD50 (Toxicity (LD50) in mouse; IV): < 50 mg/kg; LD50 (Toxicity (LD50) in mouse; SC): 70 to 75 mg/kg; MIC (Bacteroides fragilis): > 128 µg/mL; MIC (Clostridium perfringens): 8 µg/mL (≈ 4.81 µM); MIC [16]: 0.06 µg/mL; ED50 (Streptococcus pneumoniae [17]): 0.09 mg/kg; ED50 (Staphylococcus aureus [18]): 0.08 mg/kg; ED50 (Streptococcus pyogenes [19]): 0.032 mg/kg; ED50 (Streptococcus pyogenes [19]; oral administration): 66 mg/kg; MIC [20]: 32.0 µg/mL; MIC [21]: 0.13 µg/mL; MIC (Fusobacterium symbiosum): 16 µg/mL (≈ 9.62 µM); MIC [22]: 0.5 µg/mL; MIC [23]: 0.13 µg/mL (≈ 0.0782 µM); pKa (first group) [24]: 5.73 and 5.75; pKa (second group) [24]: 7.54 and 7.58; MIC [25]: < 0.5 µg/mL; MIC (Peptococcus prevoti): < 0.5 µg/mL
